Marks after values point to notes of the source that are not given here.
Key:
STZ-diabetic Wistar rats [1] = assay: Experiment 5: urinary protein loss caused by diabetic nephropathy after 1-month treatment; assay type: in vivo, rat; details: for 24-hour Urinary Protein Loss Mean ± SE: 1 month; for effect on STZ-diabetes-induced urinary protein loss: Bimoclomol 20 mg/kg, Compound-A 10 mg/kg, (+) enantiomer 5 mg/kg daily
Method: For the 24-hour period of urine collection, the animals were placed in individual metabolic cages. During this period they were given water ad libitum but no food. The latter measure was necessary to prevent possible contamination by the protein content of the food. Urine was collected in calibrated glass containers, in which Thymol crystal (Reanal 3135-1-08-38) was placed to prevent bacterial contamination.
Before measurement, the urine samples were centrifuged (2500 rpm) and filtered through a paper filter (Whatmann 1). If necessary, they were stored at −20° C. until measurement.
The total protein content of the urine was determined by the Bradford staining method (Sigma B-6916, St. Louis, Mo.), and color intensity was detected by spectrophotometry (Hitachi-U-3200).

STZ-diabetic Wistar rats [2] = assay: Experiment 3: diabetic autonomous neuropathy after 1 month of treatment; assay type: in vivo, rat; details: daily 20 mg/kg single dose
Method: The experiments were performed under anesthesia achieved by administering 60 mg/kg ip. pentobarbital sodium (Nembutal, Sanofi, Phylaxia). After this, an intratracheal tube or polyethylene canula was inserted into the fermoral artery and vein. The arterial catheter was connected to a pressure transducer for the simultaneous measurement of systolic and diastolic blood pressure (online automatic measuring and forwarding system, with a Haemosys computer program). After 20 minutes of equillibration period, the following substances were administered intravenously: Noradrenalin, 5 μg/kg iv.—Isoproterenol 0.4 μg/kg iv.—N.vagus stimulation (2 V, duration: 500 μsec, delay: 1 msec). The effects of the substances were monitored for 10 minutes.

[3] = test system: obese, insulin resistant, hyperinsulinaemic Zucker fa/fa rats; assay: Experiment 1: carbohydrate metabolism (fasting glucose/insulin, ip glucose tolerance test) after 2-month treatment; assay type: in vivo, rat; details: for Fasting Blood Glucose (mean ± SE) / Fasting Insulin (mean ± SE) / Blood Glucose (AUC) (mean ± SE) / Insulin (AUC) (mean ± SE): 2-month treatment; for effect on AUC of insulin / effect on area under the blood glucose curve (AUC): intraperitoneal glucose tolerance test; for Blood Glucose (AUC) (mean ± SE) / Insulin (AUC) (mean ± SE): ip glucose tolerance test 2 g/kg, AUC 0-60 minutes; for effect on peripheral insulin resistance: summary of Experiment 1
Method: In the experiments so-called Zucker fa/fa rats (Charles River Laboratories Inc.) were used. In […] animals, obesity, insulin resistance, high blood insulin level, impaired glucose tolerance and hypertriglyceridaemia result from hypothalamic leptin receptor mutation. Due to the above characteristics, this is an accepted model of early type 2 diabetes.
The animals were placed in individual metabolic cages for 24 hours at the beginning of the study, and after 1 or 2 months of treatment for 24 hours of urine collection.
The animals were given either the test substances or physiological saline solution by gavage for control once a day between weeks 14-22.
Biochemical parameters of the blood and the urine were measured by a Kodak Ectachem 700 automatic analyzer. The total protein level of the urine was determined spectrophotometrically with the use of Bradford staining (Hitachi U-3200) at 595 nm. The insulin concentration of the serum was determined by the RIA method, using rat anti-insulin antibodies.
Systolic, diastolic blood pressure and heart rate were measured weekly on the tails of the rats (so-called tail cuff method) by a Letica 200 automatic analyzer. After two months of treatment, the level of glucose tolerance was determined by the intraperitoneal glucose tolerance test (2 g/kg ip.).

STZ-diabetic Wistar rats [4] = assay: Experiment 4: histological alterations of early diabetic retinopathy after 1 month of treatment; assay type: in vivo, rat; details: for Score values Improvement % / Score values Mean ± SE (retinopathy histology) / effect on diabetic retinopathy induced pathological histological alterations: 1 month; for effect on diabetic retinopathy induced pathological histological alterations: Compound A 5 mg/kg, bimoclomol 20 mg/kg daily
Method: Photographs and slide positives were prepared of representative samples.
The given value for negative cases was 0.1. A Box and Whisker plot graph was also prepared.

STZ diabetic Wistar rats = assay: Preliminary test: N-oxide derivatives of bimoclomol on motor and sensor nerve conduction velocity deficit; assay type: in vivo, rat
Method: In a preliminary test the effectiveness of the three N-oxide derivatives of bimoclomol on motor and sensor neuropathy in STZ diabetic Wistar rats were studied. The effectiveness of the three bimoclomol N-oxide derivatives in improving the peripheral motor and sensor nerve conduction velocity deficit caused by streptozotocine-induced diabetes was determined with use of the method described in detail in Experiment 2.
(§1) (Graphpad Instat, San Diego, Calif.).

STZ-diabetic Wistar rats [5] = assay: Experiment 2: peripheral neuropathy, nerve conduction velocity after 1-month treatment; assay type: in vivo, rat; details: for MNCV / MNCV improvement / SNCV / SNCV improvement: 1 month; for effect on motor (MNCV) and sensor (SNCV) nerve conduction velocities: bimoclomol 20 mg/kg, Compound A 5 mg/kg once a day
Text: as §1

STZ-diabetic rats = details: 2 month
Method: After anesthesia (Calypsovet, 125 mg/kg. Ip., Richter Rt., Hungary), the eyes were enucleated and fixed in 4% formaldehyde dissolved in a phosphate buffer (pH:7.4).
Afterwards, they were embedded in paraffin (Medim DDM P800, embedding center: Lignifer L-120-92-014, stainer: Shandon Eliott, Microtome: is Leica SM 2000 R, Microscope: Jenaval Karl Zeiss Jena). Several 6 micron sections of the eyes were prepared, and hematoxilyn/eosine (Fluka) and PAS (periodic acid-Schiff, Fluka) staining were used. The light-microscopic evaluation was performed at a magnification of 40× and 100×. Photographs and slide positives were prepared of representative samples.
The histological evaluation was performed on coded samples, the group division was unknown for the examiner. Pathological deviations of the retina were graded on a scale of 0-20, while those of the lens on a scale of 0-3.
The statistical calculations were done with the Statistica 4.5 (SatSoft, USA) program. The given value for negative cases was 0.1. A Box and Whisker plot graph was also prepared.
For each group in the experiment, the mean±SE (Standard Error) values were calculated, and the comparison was done with the help of a non-parametric Mann-Whitney U-test (Graphpad Instat, San Diego, Calif.).

STZ-diabetic Wistar rats [6] = assay: Experiment 6: Compound-A and enantiomers, nerve conduction velocity after 1 month treatment
Method: In the experiments, male Wistar rats were used (Charles River Laboratories Inc.). At the start of the experiment, their weights were 340-370 g. Diabetes was induced by the intravenous administration of a single 45 mg/kg dose of streptozotocine (STZ, Sigma, St. Louis, Mo.) dissolved in physiological saline solution. The development of diabetes was checked after 1 day by a blood glucose test, accepting a value over 15 mmol/l.
The test and reference substances were administered p.os to the animals once a day.
For the determination of nerve conduction velocity (NCV), the method of Stanley, modified by De Konig and Gispen was used. The animals were anesthetized by the simultaneous administration of Hyponorm (1 mg/kg ip., Janssen, Tilburg, Denmark), fluanisone (10 mg/ml), and phentanyl citrate (0.2 mg/ml). Afterwards, the left ischiadicus and tibial nerves were stimulated at standard points. Supramaximal stimulus (square impulse, 0.03 ms) was used with a platinum needle electrode, through a Nihon-Kohden (model SEN-1104, Japan) stimulator. The electromyogram (EMG) transferred from the sole muscles and intensified by a myograph (Elema-Schonander, Stockholm, Sweden) was analyzed further by the Matlab for Windows (Mathwork Inc, UK) program. The extent of NCV damage caused by diabetes was expressed in m/s. The effectiveness of the treatment was compared to this in terms of percentage (%). The statistical calculations were done by unpaired t-test or single-criterion ANOVA test (along with the Newman-Keuls post hoc test).

STZ-diabetic Wistar rats [7] = test system: STZ-diabetic Wistar rats
Text: The experiments were accomplished on Wistar rats with a body weight of 320-350 g. Diabetes was induced and checked as described in Experiment 2. In the test animals having been diabetic for 3 weeks the left nervus ischidiacus was injured by freezing and the right side one was used as non-injured control. The regeneration was observed by monitoring the signals of the flexor reflex provoked by irritation of the sole that is areas under curve (AUC) of the electromyogram transferred from the forward tibial muscle. For the stimulation and detection the system described in Experiment 2 was used. Single daily doses of 10 mg/kg of Compound-A and 5 mg/kg of A(+) enantiomer were administred for 5 weeks after the injury by freezing.

[8] = 1 month, isoproterenol 0.4 μg/kg iv.
[9] = Compound-A 10 mg/kg, enantiomers 5 mg/kg daily

## O=C(O)/C=C\C(=O)O.OC(CON=C(Cl)c1cccnc1)CN1CCCCC1 (racemic) [bimoclomol, maleate of O-(3-piperidino-2-hydroxy-1-propyl)-3-pyridyne hydroxymic acid-chloride, reference compound]
STZ-diabetic Wistar rats [1]; 20 mg/kg daily, series 1
  24-hour Urinary Protein Loss Mean ± SE: 3.66 ± 1.39 mg/24 h
STZ-diabetic Wistar rats [1]
  effect on STZ-diabetes-induced urinary protein loss: significantly reduced
STZ-diabetic Wistar rats [2]
  effect on pathological deviations resulting from autonomous neuropathy: significantly reduced
STZ-diabetic Wistar rats [2]; 1 month
  Increased negative chronotropic effect on vagus stimulation: ↑ (corrects)
  Reduced hypotension on vagus stimulation: ↑ (corrects)
  Systemic arterial hypotension (deviation due to diabetes): ↑ (corrects)
  Weight loss (deviation due to diabetes): ↑ (corrects)
STZ-diabetic Wistar rats [2]; [8]
  Reduced IS induced positive chronotropic effect: ↑ (corrects)
  Reduced IS induced systemic arterial hypotension: ↑ (corrects)
STZ-diabetic Wistar rats [2]; 1 month, noradrenalin 5 μg/kg iv.
  Reduced NA induced systemic arterial pressure response: ↑ (corrects)
[3]; 20 mg/kg p.os daily
  effect on fasting blood glucose: significantly reduced
  effect on fasting insulin concentration: did not effect
  Fasting Blood Glucose (mean ± SE): 8.179 ± 0.316 mmol/L
  Fasting Insulin (mean ± SE): 29.362 ± 9.211 ng/mL
  Blood Glucose (AUC) (mean ± SE): 1286.86 ± 131.59
  Insulin (AUC) (mean ± SE): 2337.71 ± 590.49
[3]
  effect on AUC of insulin: had no effect
  effect on area under the blood glucose curve (AUC): neither bimoclomol, nor Compound A effected
  effect on peripheral insulin resistance: does not
STZ-diabetic Wistar rats [4]; 20 mg/kg daily
  Score values Improvement %: 61.3%
  Score values Mean ± SE (retinopathy histology): 5.185 ± 1.019
STZ-diabetic Wistar rats [4]
  effect on diabetic retinopathy induced pathological histological alterations: significantly improved
STZ diabetic Wistar rats; 20 mg/kg
  Improvement of nerve conduction velocity (%) motor (MNCV): 72,4%
  Improvement of nerve conduction velocity (%) sensor (SNCV): 66,9%
STZ-diabetic Wistar rats [5]; 20 mg/kg p.os once a day
  MNCV: 57.4 ± 0.2 m/s
  MNCV improvement: 79.7%
  SNCV: 58.5 ± 0.6 m/s
  SNCV improvement: 77.9%
STZ-diabetic Wistar rats [5]
  effect on motor (MNCV) and sensor (SNCV) nerve conduction velocities: significantly improved

## O=C(O)/C=C\C(=O)O.[O-][n+]1cccc(C(Cl)=NOCC(O)CN2CCCCC2)c1 (stereo not drawn) [Compound A, N-[2-hydroxy-3-(1-piperidinyl)-propoxy]-pyridine-1-oxide-3-carboximidoyl chloride (Z)-2-butenedioate (1:1)]
STZ-diabetic rats; 10 mg/kg daily
  Scores lenticular + retinal improvement %: 34.7%
  Scores lenticular + retinal mean ± SE: 4.55 ± 0.69
  Scores retinal improvement %: 65.8%
  Scores retinal mean ± SE: 1.80 ± 0.75
STZ-diabetic rats; [9]
  effect on lenticular and retinal pathologic histological alterations: not significant
  effect on retinal histological alterations only: effective
STZ-diabetic Wistar rats [1]; 10 mg/kg daily, series 2
  24-hour Urinary Protein Loss Mean ± SE: 12.06 ± 1.70 mg/24 h
STZ-diabetic Wistar rats [1]
  effect on STZ-diabetes-induced urinary protein loss: non-significantly reduced
STZ-diabetic Wistar rats [2]
  effect on pathological deviations resulting from autonomous neuropathy: significantly reduced
STZ-diabetic Wistar rats [2]; 1 month
  Heart left ventricular hypertrophy (deviation due to diabetes): ↑ (corrects)
  Increased negative chronotropic effect on vagus stimulation: ↑ (corrects)
  Reduced hypotension on vagus stimulation: ↑ (corrects)
STZ-diabetic Wistar rats [2]; [8]
  Reduced IS induced systemic arterial hypotension: — (ineffective)
[3]; 20 mg/kg p.os daily
  effect on fasting blood glucose: significantly reduced
  effect on fasting insulin concentration: significantly reduced
  reduction of fasting insulin concentration: approx. 50%
  Fasting Blood Glucose (mean ± SE): 8.267 ± 0.436 mmol/L
  Fasting Insulin (mean ± SE): 11.176 ± 1.955 ng/mL
  Blood Glucose (AUC) (mean ± SE): 1418.40 ± 194.57
  Insulin (AUC) (mean ± SE): 790.35 ± 166.08
[3]
  effect on AUC of insulin: reduced it significantly, to the same level as the Lean control
  effect on area under the blood glucose curve (AUC): neither bimoclomol, nor Compound A effected
  effect on peripheral insulin resistance: significantly reduces
STZ-diabetic Wistar rats [4]; 5 mg/kg daily
  Score values Improvement %: 74.5%
  Score values Mean ± SE (retinopathy histology): 4.028 ± 0.961
STZ-diabetic Wistar rats [4]; Compound A 5 mg/kg vs bimoclomol 20 mg/kg
  comparison of the two compounds versus diabetic, non-treated animals: statistically more effective
STZ-diabetic Wistar rats [4]
  effect on diabetic retinopathy induced pathological histological alterations: significantly improved
STZ-diabetic Wistar rats [6]; 10 mg/kg daily, 1 month
  MNCV: 59.3 ± 0.3 m/s
  MNCV improvement: 78.9%
  SNCV improvement: 79.2%
STZ-diabetic Wistar rats [6]; [9]
  effect on motor (MNCV) and sensory (SNCV) nerve conduction velocity deficits: significantly improved
STZ-diabetic Wistar rats [7]; 10 mg/kg daily for 5 weeks
  neuroregeneration of the non-freezed nerves: 44%
STZ-diabetic Wistar rats [7]; 10 mg/kg daily for 5 weeks after injury, 5. week, untreated 63%
  extent of neuroregeneration of the nerve injured by freezing: 73%
STZ-diabetic Wistar rats [5]; 5 mg/kg p.os once a day
  MNCV: 57.4 ± 0.3 m/s
  MNCV improvement: 79.5%
  SNCV: 58.4 ± 0.3 m/s
  SNCV improvement: 77.6%
STZ-diabetic Wistar rats [5]; 10 mg/kg p.os once a day
  MNCV: 59.2 ± 0.3 m/s
  MNCV improvement: 90.4%
  SNCV: 60.4 ± 0.4 m/s
  SNCV improvement: 89.0%
STZ-diabetic Wistar rats [5]; 20 mg/kg p.os once a day
  MNCV: 59.1 ± 0.3 m/s
  MNCV improvement: 89.8%
  SNCV: 60.1 ± 0.3 m/s
  SNCV improvement: 87.4%
STZ-diabetic Wistar rats [5]
  effect on motor (MNCV) and sensor (SNCV) nerve conduction velocities: significantly improved
STZ-diabetic Wistar rats [5]; dose over 10 mg/kg
  effect of an increase in the dose over 10 mg/kg on NCV improvement: did not increase the effect

## [O-][n+]1cccc(C(Cl)=NOCC(O)CN2CCCCC2)c1 (stereo not drawn) [N-[2-hydroxy-3-(1-piperidinyl)-1-propoxy]-pyridine-1-oxide-3-carboximidoyl chloride]
STZ diabetic Wistar rats; 5 mg/kg
  Improvement of nerve conduction velocity (%) motor (MNCV): 66,5%
  Improvement of nerve conduction velocity (%) sensor (SNCV): 63,4%
STZ diabetic Wistar rats; N-oxide derivatives 5 mg/kg vs bimoclomol 20 mg/kg
  effect on the motor and sensor neuropathy compared with bimoclomol: equivalent with bimoclomol

## [O-][n+]1cccc(C(Cl)=NOCC(O)C[N+]2([O-])CCCCC2)c1 (stereo not drawn) [double N-oxide derivative of bimoclomol]
STZ diabetic Wistar rats; 5 mg/kg
  Improvement of nerve conduction velocity (%) motor (MNCV): 25,9* %
  Improvement of nerve conduction velocity (%) sensor (SNCV): 29,1** %

From patent publication US6649628B1, “N-[2-hydroxy-3-(1-piperidinyl)propoxy]pyridine-1-oxide-3-carboximidoyl chloride and its use in the treatment of insulin resistance” (Biorex Kutato es Fejleszto RT, priority 1999, dated 2003)
